# Patent publication US20240325548A1, “DYNAMIC BIOACTIVE SCAFFOLDS AND THERAPEUTIC USES THEREOF AFTER CNS INJURY” (Northwestern University, priority 2021, published 2024)
# System: hNPCs
# Assay: hNPC attachment, proliferation and phenotype on co-assembled PA coatings (EdU, SOX-2, PAX6)
# Type: cell-based, human
# Description: Neural progenitor cells (NPCs) were differentiated from human embryonic stem cells HUES 64 (Harvard University) (see FIG. 2C). In short, 70% confluent stem cell cultures grown in Matrigel (Thermo Fisher) coated plates with mTESR medium (STEMCELL Technologies), were switched to N2B27 medium (50% DMEM: F12, 50% Neurobasal, supplemented with NEAA, Glutamax, N2 and B27; Gibco) containing dual SMAD inhibitors (SB431542, DNSK International and LDN-193189, Tocris) for 12 days to induce the generation of neural progenitors. Neuralization was enhanced by supplementing medium with laminin from day 5 to 12. Next, neural rosettes were dissociated with neural rosette selection reagent (STEMCELL Technologies) to obtain NPCs, which are expanded in N2B27 (Gibco) medium supplemented with bFGF (Millipore). For experimentation in the different PA platforms, NPCs were dissociated with Accutase (Innovative Cell technology), and cultured in the distinct platforms with DMEM: F12+N2+B27 medium with hyclone penicillin-streptomycin (GE Healthcare) and ascorbic acid (0.2 μg/mL; Sigma-Aldrich).
# For IKVAV PA treatments, hNPCs were cultured on ornithine coatings (German Glass, Chemglass Life Science) in 6 well and 24 well plates at a density of 500,000 cells/well and 80,000 cells/well respectively. hNPCs were treated with […] of IKVAV PAs ([PA]=6 mM, [KCl]=3 mM, [NaCl]=150 mM) or recombinant laminin protein (10 mg/mL) in solution. IKVAV PA2 and IKVAV PA5 were also mixed with 5 mM CaCl2) at a ratio PA:CaCl2) 6:1 to treat hNPCs. For 2D experiments, hNPCs were cultured on the different IKVAV PAs or laminin coatings in 6 well and 24 well plates at densities mentioned above. For co-assembled experiments, hNPCs were cultured on the different co-assembled PA coatings in 6 well and 24 well plates at a density of 400,000 cells/well and 50,000 cells/well respectively.
# hNPCs were fed 4 times a week with DMEM: F12+N2^+B27 medium with hyclone penicillin-streptomycin and ascorbic acid. After 24 h, 72 h 1- or 2-weeks in vitro, cell lysates were harvested or fixed for WB or ICC, respectively. Three replicates per condition and at least three independent experiments were carried out for all conditions investigated.
# For the hNPCs proliferation assay, 2 μM of the thymidine analog 5-ethynyl-2′-deoxyuridine (EdU, Thermo Fisher) was incorporated into the culture medium for 24 h. Cells were fixed at the indicated time points in 4% paraformaldehyde (PFA) for 15 min at RT. After fixation, samples were washed in PBS twice and then stained with Click-iT™ EdU Cell Proliferation Kit containing 11 mM CuSO4 (from 50 mM stock) and 1 μg/mL of Alexa Fluor-555 azide (from 0.5 mg/mL, Thermo Fisher) for 30 minutes at RT in the dark. The staining cocktail was then removed, and cells were washed with PBS. Then, hNPCs were counterstained with anti-rabbit SOX-2 antibody following the immunofluorescence protocol described below and 4′, 6-diamidino-2-phenylindole (DAPI, Thermo Fisher) at 5 μg/mL in PBS for 20 min at RT. The cells were then washed with PBS and mounted with Immu-Mount (Fisher Scientific) for imaging.
# For immunofluorescence, fixed primary cultures or free-floating tissue sections (40 m Thick) were incubated in blocking buffer containing 0.02% Triton-X (Sigma-Aldrich), 1% NHS (Gibco) and PBS 1× (Gibco). Samples were incubated with primary antibodies over night at 4° C. Alexa-488, Alexa-555 and/or Alexa-647 (1:500, Thermofisher) were used as secondary antibodies. DAPI (1:500, Thermofisher) was used to stain nuclei. […]
substance,measurement,setting,value
C16-A2G2E4GIKVAV [IKVAV PA2],percentage of proliferating EdU+ and SOX2+ cells,,decreased significantly
same,percentage of neuronal progenitor cells PAX6+,one week later,increased percentage
